Key:
Influenza A virus [1] = assay: Antiviral activity against influenza A/Yuefang/243/72 (H3N2) virus in MDCK cells by CPE assay; assay type: functional, organism-based
Influenza B virus [2] = assay: Antiviral activity against influenza B/Sichuan/83/2000 virus in MDCK cells by CPE assay; assay type: functional, organism-based
Influenza A virus [3] = assay: Antiviral activity against influenza A/Hanfang/359/95 (H3N2) virus in MDCK cells by CPE assay; assay type: functional, organism-based
Influenza A virus [4] = assay: Antiviral activity against influenza A/Jifang/15/90 (H3N2) virus in MDCK cells by CPE assay; assay type: functional, organism-based
Influenza B virus [5] = assay: Antiviral activity against influenza B/Jifang/13/97 virus in MDCK cells by CPE assay; assay type: functional, organism-based
Influenza B virus [6] = assay: Antiviral activity against influenza B/Jingfang/76/98 in MDCK cells by CPE assay; assay type: functional, organism-based
Influenza A virus [7] = assay: Antiviral activity against influenza A/Jingfang/262/95(H1N1) virus in MDCK cells by CPE assay; assay type: functional, organism-based
Mus musculus [8] = assay: Weight change in mouse at 62.5 mg/kg, ip bid after 14 days; assay type: ADME, organism-based; design: dose 62.5 mg/kg, route intraperitoneal; details: in vivo, 336 h
Influenza A virus [9] = assay: Antiviral activity against influenza A/Jingfang/Fm1 (H1N1) infected in mouse assessed as mean survival time of mouse at 31.25 mg/kg, po bid after 2 hrs of viral infection for 5 days; assay type: functional
Mus musculus [10] = assay: Survival of mouse at 62.5 mg/kg, po bid after 5 days; assay type: ADME, organism-based; design: dose 62.5 mg/kg, route oral; details: in vivo, 120 h
Influenza A virus [11] = assay: Antiviral activity against influenza A/Jingfang/Fm1 (H1N1) infected in mouse assessed as mean survival time of mouse at 125 mg/kg, po bid after 2 hrs of viral infection for 5 days; assay type: functional
Mus musculus [12] = assay: Weight change in mouse at 31.25 mg/kg, po bid after 14 days; assay type: ADME, organism-based; design: dose 31.25 mg/kg, route oral; details: in vivo, 336 h
Influenza A virus [13] = assay: Antiviral activity against influenza A/Jingfang/Fm1 (H1N1) virus infected in mouse assessed as survival of mouse at 125 mg/kg, po bid after 2 hrs of viral infection for 5 days; assay type: functional
Mus musculus [14] = assay: Weight change in mouse at 125 mg/kg, po bid after 14 days; assay type: ADME, organism-based; design: dose 125 mg/kg, route oral; details: in vivo, 336 h
Mus musculus [15] = assay: Weight change in mouse at 62.5 mg/kg, po bid after 14 days; assay type: ADME, organism-based; design: dose 62.5 mg/kg, route oral; details: in vivo, 336 h
Influenza A virus [16] = assay: Antiviral activity against influenza A/Jingfang/Fm1 (H1N1) infected in mouse assessed as survival of mouse at 62.5 mg/kg, ip bid after 2 hrs of viral infection for 5 days; assay type: functional; details: route intraperitoneal
Mus musculus [17] = assay: Survival of mouse at 125 mg/kg, po bid after 5 days; assay type: ADME, organism-based; design: dose 125 mg/kg, route oral; details: in vivo, 120 h
Influenza A virus [18] = assay: Antiviral activity against influenza A/Jingfang/Fm1 (H1N1) infected in mouse assessed as mean survival time of mouse at 62.5 mg/kg, po bid after 2 hrs of viral infection for 5 days; assay type: functional
Mus musculus [19] = assay: Survival of mouse at 31.25 mg/kg, po bid after 5 days; assay type: ADME, organism-based; design: dose 31.25 mg/kg, route oral; details: in vivo, 120 h
Influenza A virus [20] = assay: Antiviral activity against influenza A/Jingfang/Fm1 (H1N1) infected in mouse assessed as survival of mouse at 62.5 mg/kg, po bid after 2 hrs of viral infection for 5 days; assay type: functional
Influenza A virus [21] = assay: Antiviral activity against influenza A/Jingfang/Fm1 (H1N1) infected in mouse assessed as mean survival time of mouse at 62.5 mg/kg, ip bid after 2 hrs of viral infection for 5 days; assay type: functional; details: route intraperitoneal
Mus musculus [22] = assay: Survival of mouse at 62.5 mg/kg, ip bid after 5 days; assay type: ADME, organism-based; design: dose 62.5 mg/kg, route intraperitoneal; details: in vivo, 120 h
Influenza A virus [23] = assay: Antiviral activity against influenza A/Jingfang/Fm1 (H1N1) infected in mouse assessed as survival of mouse at 31.25 mg/kg, po bid after 2 hrs of viral infection for 5 days; assay type: functional
Influenza A virus [24] = assay: Antiviral activity against influenza A/Jingfang/Fm1 (H1N1) infected in mouse assessed as mean survival time of mouse at 100 mg/kg, ip bid after 2 hrs of viral infection for 5 days; assay type: functional; details: route intraperitoneal
Mus musculus [25] = assay: Weight change in mouse at 100 mg/kg, ip bid after 14 days; assay type: ADME, organism-based; design: dose 100 mg/kg, route intraperitoneal; details: in vivo, 336 h
Mus musculus [26] = assay: Survival of mouse at 100 mg/kg, ip bid after 5 days; assay type: ADME, organism-based; design: dose 100 mg/kg, route intraperitoneal; details: in vivo, 120 h

Molecule `CCCCCCCCCCCCCCOCCCOC(=O)C1=C[C@H](NC(=N)N)[C@@H](NC(C)=O)[C@H]([C@H](O)[C@H](O)CO)O1` has an IC50 (Influenza A virus [1]) of 0.315 µM, an IC50 (Influenza B virus [2]) of 37.8 µM and an IC50 (Influenza A virus [3]) of 1.06 µM. The IC50 (Influenza A virus [4]) was 2.49 µM, the IC50 (Influenza B virus [5]) was 31.5 µM and the IC50 (Influenza B virus [6]) was 23.3 µM. The IC50 (Influenza A virus [7]; Influenza A virus, MDCK) was 18.9 µM.

Molecule `CC(=O)N[C@H]1[C@H]([C@H](O)[C@H](O)CO)OC(C(=O)O)=C[C@@H]1NC(=N)N` [ZANAMIVIR] has an IC50 (Influenza A virus [1]) of 0.075 µM, an IC50 (Influenza B virus [2]) of 1580 µM and an IC50 (Influenza A virus [3]) of 0.385 µM. The IC50 (Influenza A virus [4]) was 0.469 µM, the IC50 (Influenza B virus [6]) was 223 µM and the IC50 (Influenza A virus [7]; mdck) was 16.7 µM.

With `CCCCCCCCCCCCCCCCCCOCCOC(=O)C1=C[C@H](NC(=N)N)[C@@H](NC(C)=O)[C@H]([C@H](O)[C@H](O)CO)O1` the IC50 (Influenza A virus [1]) was 0.226 µM, the Activity (Mus musculus [8]) was 13.9 g and the Activity (Influenza A virus [9]) was 9.1 days. The IC50 (Influenza B virus [2]) was 21.8 µM, the Activity (Mus musculus [10]) was “Active” and the Activity (Influenza A virus [11]) was 11.2 days. It also gave an IC50 (Influenza A virus [3]) of 5.89 µM, an Activity (Mus musculus [12]) of 12.7 g and a survival at 125 mg/kg (Influenza A virus [13]) of 60%. It also gave an Activity (Mus musculus [14]) of 12.5 g, an Activity (Mus musculus [15]) of 13.5 g and a survival at 62.5 mg/kg (Influenza A virus [16]) of 60%. For the same molecule, the IC50 (Influenza A virus [4]) was 2.94 µM, the Activity (Mus musculus [17]) was “Active” and the IC50 (Influenza B virus [5]) was 247 µM. The Activity (Influenza A virus [18]) was 10.2 days, the Activity (Mus musculus [19]) was “Active” and the IC50 (Influenza B virus [6]) was 66.6 µM. It also gave a survival at 62.5 mg/kg (Influenza A virus [20]) of 40%, an IC50 (Influenza A virus [7]; Influenza A virus, MDCK) of 26.8 µM and an Activity (Influenza A virus [21]) of 11.5 days. The Activity (Mus musculus [22]) was “Active” and the survival at 31.25 mg/kg (Influenza A virus [23]) was 10%.

Work on `CCCCCCCCCCCCCCCCOCCCOC(=O)C1=C[C@H](NC(=N)N)[C@@H](NC(C)=O)[C@H]([C@H](O)[C@H](O)CO)O1` yielded an IC50 (Influenza A virus [1]) of 0.301 µM, an IC50 (Influenza B virus [2]) of 22.3 µM and an IC50 (Influenza A virus [3]) of 3.06 µM. It also gave an IC50 (Influenza A virus [4]) of 3.01 µM, an IC50 (Influenza B virus [5]) of 23.4 µM and an IC50 (Influenza B virus [6]) of 22.3 µM. The IC50 (Influenza A virus [7]; Influenza A virus, MDCK) was 18.1 µM.

For `NC(=O)c1ncn([C@@H]2O[C@H](CO)[C@@H](O)[C@H]2O)n1` [RIBAVIRIN], the Activity (Influenza A virus [24]) was 14 days, the IC50 (Influenza A virus [1]) was 5.85 µM and the Activity (Mus musculus [25]) was 11.5 g. For the same molecule, the IC50 (Influenza B virus [2]) was 164 µM, the IC50 (Influenza A virus [3]) was 7.01 µM and the IC50 (Influenza A virus [4]) was 5.04 µM. The IC50 (Influenza B virus [5]) was 96.2 µM, the IC50 (Influenza B virus [6]) was 15.2 µM and the Activity (Mus musculus [26]) was “Active”. It also gave an IC50 (Influenza A virus [7]; Influenza A virus, MDCK) of 176 µM.

Source: ChEMBL document CHEMBL1149649, “Synthesis and anti-influenza activities of carboxyl alkoxyalkyl esters of 4-guanidino-Neu5Ac2en (zanamivir)” (Bioorg Med Chem Lett, 2007)
